Assay results taken from the supplement of paper PMC10307832.

Columns and labels:
Experiment in all cases: relative viability (nuclei count vs DMSO), 5 days (fraction); higher = more cells survive
Neratinib = compound: CCOc1cc2ncc(C#N)c(Nc3ccc(OCc4ccccn4)c(Cl)c3)c2cc1NC(=O)/C=C/CN(C)C [Neratinib]
Procedure, shortened: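 After an overnight hold at 37 °C, lung cancer cell lines in 1536-well plates were pinned with five library-drug doses (not always all listed), each √10 from the next, on vehicle-anchored plates. The cells stayed 5 days without fresh medium, then a one-step fix, permeabilisation and Hoechst stain preceded 4× imaging and MetaXpress nuclear counts. A plate passed only with control CV under 25% and at least one doubling. Viability is the median, over plates, of treated-well nuclei relative to vehicle-well nuclei.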

Neratinib + Trametinib = compound: CCOc1cc2ncc(C#N)c(Nc3ccc(OCc4ccccn4)c(Cl)c3)c2cc1NC(=O)/C=C/CN(C)C [Neratinib] + CC(=O)Nc1cccc(-n2c(=O)n(C3CC3)c(=O)c3c(Nc4ccc(I)cc4F)n(C)c(=O)c(C)c32)c1 [Trametinib] (partner 0.02 µM)
Procedure, shortened: (§1)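 Lung cancer cell lines were seeded in 1536-well plates and dosed by pin tool the next day, with either a single drug or a fixed anchor-drug dose combined with five library-drug doses (not always all listed) spaced in √10 steps. Five days later, one step fixed the cells and stained their nuclei (final 0.05% Triton X-100, 1% formaldehyde, 1 ug/ml Hoechst), and nuclei were counted on 4× images. Relative viability is the nuclei count in treated wells divided by the count in vehicle wells, and each value is the median of duplicate plates.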

Neratinib + Palbociclib = compound: CCOc1cc2ncc(C#N)c(Nc3ccc(OCc4ccccn4)c(Cl)c3)c2cc1NC(=O)/C=C/CN(C)C [Neratinib] + CC(=O)c1c(C)c2cnc(Nc3ccc(N4CCNCC4)cn3)nc2n(C2CCCC2)c1=O [Palbociclib] (partner 0.5 µM)
Procedure, shortened: as §1

Neratinib + Luminespib = compound: CCOc1cc2ncc(C#N)c(Nc3ccc(OCc4ccccn4)c(Cl)c3)c2cc1NC(=O)/C=C/CN(C)C [Neratinib] + CCNC(=O)c1noc(-c2cc(C(C)C)c(O)cc2O)c1-c1ccc(CN2CCOCC2)cc1 [Luminespib] (partner 0.01 µM)
Procedure, shortened: as §1

Neratinib + OSI-027 = compound: CCOc1cc2ncc(C#N)c(Nc3ccc(OCc4ccccn4)c(Cl)c3)c2cc1NC(=O)/C=C/CN(C)C [Neratinib] + COc1cccc2cc(-c3nc([C@H]4CC[C@H](C(=O)O)CC4)n4ncnc(N)c34)[nH]c12 [OSI-027] (partner 0.5 µM)
Procedure, shortened: as §1

Neratinib + Tozasertib = compound: CCOc1cc2ncc(C#N)c(Nc3ccc(OCc4ccccn4)c(Cl)c3)c2cc1NC(=O)/C=C/CN(C)C [Neratinib] + Cc1cc(Nc2cc(N3CCN(C)CC3)nc(Sc3ccc(NC(=O)C4CC4)cc3)n2)n[nH]1 [Tozasertib] (partner 0.1 µM)
Procedure, shortened: as §1

Neratinib + Dasatinib = compound: CCOc1cc2ncc(C#N)c(Nc3ccc(OCc4ccccn4)c(Cl)c3)c2cc1NC(=O)/C=C/CN(C)C [Neratinib] + Cc1nc(Nc2ncc(C(=O)Nc3c(C)cccc3Cl)s2)cc(N2CCN(CCO)CC2)n1 [Dasatinib] (partner 0.075 µM)
Procedure, shortened: as §1

Neratinib + Phenformin = compound: CCOc1cc2ncc(C#N)c(Nc3ccc(OCc4ccccn4)c(Cl)c3)c2cc1NC(=O)/C=C/CN(C)C [Neratinib] + N=C(N)NC(=N)NCCc1ccccc1 [Phenformin] (partner 250 µM)
Procedure, shortened: as §1

Neratinib + AZD7762 = compound: CCOc1cc2ncc(C#N)c(Nc3ccc(OCc4ccccn4)c(Cl)c3)c2cc1NC(=O)/C=C/CN(C)C [Neratinib] + NC(=O)Nc1cc(-c2cccc(F)c2)sc1C(=O)N[C@H]1CCCNC1 [AZD7762] (partner 0.2 µM)
Procedure, shortened: as §1

Neratinib + Pemetrexed = compound: CCOc1cc2ncc(C#N)c(Nc3ccc(OCc4ccccn4)c(Cl)c3)c2cc1NC(=O)/C=C/CN(C)C [Neratinib] + Nc1nc2[nH]cc(CCc3ccc(C(=O)N[C@@H](CCC(=O)O)C(=O)O)cc3)c2c(=O)[nH]1 [Pemetrexed] (partner 0.2 µM)
Procedure, shortened: as §1

Neratinib + Decitabine = compound: CCOc1cc2ncc(C#N)c(Nc3ccc(OCc4ccccn4)c(Cl)c3)c2cc1NC(=O)/C=C/CN(C)C [Neratinib] + Nc1ncn([C@H]2C[C@H](O)[C@@H](CO)O2)c(=O)n1 [Decitabine] (partner 2 µM)
Procedure, shortened: as §1

Neratinib + Vorinostat = compound: CCOc1cc2ncc(C#N)c(Nc3ccc(OCc4ccccn4)c(Cl)c3)c2cc1NC(=O)/C=C/CN(C)C [Neratinib] + O=C(CCCCCCC(=O)Nc1ccccc1)NO [Vorinostat] (partner 1 µM)
Procedure, shortened: as §1

Neratinib + Olaparib = compound: CCOc1cc2ncc(C#N)c(Nc3ccc(OCc4ccccn4)c(Cl)c3)c2cc1NC(=O)/C=C/CN(C)C [Neratinib] + O=C(c1cc(Cc2n[nH]c(=O)c3ccccc23)ccc1F)N1CCN(C(=O)C2CC2)CC1 [Olaparib] (partner 8 µM)
Procedure, shortened: as §1

NCI-H522
relative viability (Neratinib; 0.01 µM): 0.982
relative viability (Neratinib; 0.1 µM): 0.876
relative viability (Neratinib; 0.3162 µM): 0.692
relative viability (Neratinib; 1 µM): 0.59
relative viability (Neratinib + Trametinib; first compound 0.01 µM): 0.756
relative viability (Neratinib + Trametinib; first compound 0.03162 µM): 0.923
relative viability (Neratinib + Trametinib; first compound 0.1 µM): 0.758
relative viability (Neratinib + Trametinib; first compound 0.3162 µM): 0.599
relative viability (Neratinib + Trametinib; first compound 1 µM): 0.543
relative viability (Neratinib + Palbociclib; first compound 0.01 µM): 1.22
relative viability (Neratinib + Palbociclib; first compound 0.03162 µM): 0.759
relative viability (Neratinib + Palbociclib; first compound 0.1 µM): 0.719
relative viability (Neratinib + Palbociclib; first compound 0.3162 µM): 0.733
relative viability (Neratinib + Palbociclib; first compound 1 µM): 0.538
relative viability (Neratinib + Luminespib; first compound 0.01 µM): 1.12
relative viability (Neratinib + Luminespib; first compound 0.03162 µM): 1.12
relative viability (Neratinib + Luminespib; first compound 0.1 µM): 1.09
relative viability (Neratinib + Luminespib; first compound 0.3162 µM): 0.913
relative viability (Neratinib + Luminespib; first compound 1 µM): 0.655
relative viability (Neratinib + OSI-027; first compound 0.01 µM): 0.687
relative viability (Neratinib + OSI-027; first compound 0.03162 µM): 0.702
relative viability (Neratinib + OSI-027; first compound 0.1 µM): 0.605
relative viability (Neratinib + OSI-027; first compound 0.3162 µM): 0.548
relative viability (Neratinib + OSI-027; first compound 1 µM): 0.497
relative viability (Neratinib + Tozasertib; first compound 0.01 µM): 0.573
relative viability (Neratinib + Tozasertib; first compound 0.03162 µM): 0.608
relative viability (Neratinib + Tozasertib; first compound 0.1 µM): 0.571
relative viability (Neratinib + Tozasertib; first compound 0.3162 µM): 0.46
relative viability (Neratinib + Tozasertib; first compound 1 µM): 0.499
relative viability (Neratinib + Dasatinib; first compound 0.01 µM): 0.94
relative viability (Neratinib + Dasatinib; first compound 0.03162 µM): 0.809
relative viability (Neratinib + Dasatinib; first compound 0.1 µM): 0.818
relative viability (Neratinib + Dasatinib; first compound 0.3162 µM): 0.786
relative viability (Neratinib + Dasatinib; first compound 1 µM): 0.664
relative viability (Neratinib + Phenformin; first compound 0.01 µM): 0.747
relative viability (Neratinib + Phenformin; first compound 0.03162 µM): 0.619
relative viability (Neratinib + Phenformin; first compound 0.1 µM): 0.663
relative viability (Neratinib + Phenformin; first compound 0.3162 µM): 0.548
relative viability (Neratinib + Phenformin; first compound 1 µM): 0.604
relative viability (Neratinib + AZD7762; first compound 0.01 µM): 0.781
relative viability (Neratinib + AZD7762; first compound 0.03162 µM): 0.844
relative viability (Neratinib + AZD7762; first compound 0.1 µM): 0.878
relative viability (Neratinib + AZD7762; first compound 0.3162 µM): 0.804
relative viability (Neratinib + AZD7762; first compound 1 µM): 0.718
relative viability (Neratinib + Pemetrexed; first compound 0.01 µM): 1
relative viability (Neratinib + Pemetrexed; first compound 0.03162 µM): 0.943
relative viability (Neratinib + Pemetrexed; first compound 0.1 µM): 0.72
relative viability (Neratinib + Pemetrexed; first compound 0.3162 µM): 0.673
relative viability (Neratinib + Pemetrexed; first compound 1 µM): 0.657
relative viability (Neratinib + Decitabine; first compound 0.01 µM): 0.719
relative viability (Neratinib + Decitabine; first compound 0.03162 µM): 0.671
relative viability (Neratinib + Decitabine; first compound 0.1 µM): 0.711
relative viability (Neratinib + Decitabine; first compound 0.3162 µM): 0.557
relative viability (Neratinib + Decitabine; first compound 1 µM): 0.573
relative viability (Neratinib + Vorinostat; first compound 0.01 µM): 1.04
relative viability (Neratinib + Vorinostat; first compound 0.03162 µM): 1.01
relative viability (Neratinib + Vorinostat; first compound 0.1 µM): 0.678
relative viability (Neratinib + Vorinostat; first compound 0.3162 µM): 0.718
relative viability (Neratinib + Vorinostat; first compound 1 µM): 0.626
relative viability (Neratinib + Olaparib; first compound 0.01 µM): 0.598
relative viability (Neratinib + Olaparib; first compound 0.03162 µM): 0.5
relative viability (Neratinib + Olaparib; first compound 0.1 µM): 0.558
relative viability (Neratinib + Olaparib; first compound 0.3162 µM): 0.573
relative viability (Neratinib + Olaparib; first compound 1 µM): 0.459
